According to ChEMBL document CHEMBL1201862, “PubChem BioAssay data set” (2004):
Activity calls are given as the source filed them.

Tests used:
H9c2 = experiment: cells; type: functional, cell-based; conditions: Rattus norvegicus, H9c2, Myocardium;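 note: confirmatory concentration-response retest of ultra-high-throughput screening hits for modulation of myocardial damage; cell death induced by hydrogen peroxide oxidative stress; compound pretreatment for 60 min then peroxide exposure for 2 h; potency is for protecting the cells against peroxide damage rather than for killing them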
[1] = tested on: Streptococcus sp. 'group A'; experiment: Streptococcus pyogenes SK(-)GAS viability under kanamycin – luminescence, BacTiterGlo, confirmation, counter-screen for streptokinase expression inhibitor project, dose response (AID 1900); type: functional, organism-based
Streptococcus = experiment: GAS UMAA2166 growth inhibition – luminescence, BacTiterGlo, counter-screen for streptokinase expression inhibitor project, dose response (AID 1915); type: functional, organism-based;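 note: potency for reduction of bacterial viability or growth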
[2] = alpha-synuclein stem-loop luciferase translation blockers – H4 neuroglioma cells, luminescence, confirmation (AID 1988); type: functional, cell-based
[3] = Luminescence Cell-Based Dose Response HTS to Identify Inhibitors of 5'UTR Stem-Loop Driven Prion Protein mRNA Translation in H4 Neuroglioblastoma Cells. [Related pubchem assays: 1827 (Project Summary), 1813 (Primary HTS)]; type: functional
[4] = luciferase reporter signal suppression in cells – H4 neuroglioma cells, luminescence, dose response (AID 1990); type: functional, cell-based
Vero = experiment: cells; type: functional; conditions: Chlorocebus sabaeus
[5] = biological target: Glucose-6-phosphate 1-dehydrogenase (Homo sapiens, UniProt P11413); experiment: inhibition of Homo sapiens G6PD, dose series – biochemical, fluorescence, selectivity assay for P. falciparum G6PD inhibitor project, dose response (AID 504792); type: functional
[6] = biological target: T1, Short transient receptor potential channel 4 (Mus musculus, UniProt Q9QUQ5); experiment: calcium entry via TRPC4 opening agents – cell-based, HEK293 TRPC4/mu-opioid, Fluo-4 calcium, dose response (AID 434937); type: functional
T1 sequence (Q9QUQ5 whole entry): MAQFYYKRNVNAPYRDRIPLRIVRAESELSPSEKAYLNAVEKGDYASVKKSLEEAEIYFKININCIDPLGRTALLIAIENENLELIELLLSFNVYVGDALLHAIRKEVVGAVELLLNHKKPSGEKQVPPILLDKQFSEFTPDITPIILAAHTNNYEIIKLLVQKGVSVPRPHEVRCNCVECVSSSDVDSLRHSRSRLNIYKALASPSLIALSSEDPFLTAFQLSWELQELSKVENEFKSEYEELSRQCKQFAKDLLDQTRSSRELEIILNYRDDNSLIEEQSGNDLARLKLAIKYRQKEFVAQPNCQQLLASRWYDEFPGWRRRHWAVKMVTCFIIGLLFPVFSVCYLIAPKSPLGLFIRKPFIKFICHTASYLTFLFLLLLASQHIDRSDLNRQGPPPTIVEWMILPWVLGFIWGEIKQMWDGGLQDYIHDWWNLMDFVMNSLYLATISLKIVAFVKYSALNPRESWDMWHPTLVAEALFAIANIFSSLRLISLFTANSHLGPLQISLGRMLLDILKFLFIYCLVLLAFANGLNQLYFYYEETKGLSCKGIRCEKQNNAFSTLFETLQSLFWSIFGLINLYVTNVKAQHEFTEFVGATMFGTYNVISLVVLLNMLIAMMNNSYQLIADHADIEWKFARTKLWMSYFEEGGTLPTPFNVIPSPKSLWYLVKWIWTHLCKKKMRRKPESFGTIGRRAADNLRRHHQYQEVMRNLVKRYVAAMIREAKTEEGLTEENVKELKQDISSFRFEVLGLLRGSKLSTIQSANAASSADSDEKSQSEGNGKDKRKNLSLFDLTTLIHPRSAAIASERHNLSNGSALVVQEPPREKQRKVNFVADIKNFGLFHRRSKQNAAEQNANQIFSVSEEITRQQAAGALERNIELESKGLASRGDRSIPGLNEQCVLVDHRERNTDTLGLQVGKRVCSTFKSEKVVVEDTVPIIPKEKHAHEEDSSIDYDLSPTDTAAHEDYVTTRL

[7] = NIH3T3 cell viability loss – ATP luminescence, mouse fibroblasts, counter-screen, dose response (AID 2010); type: functional, cell-based;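 note: cells exposed to compound for about 90 hours before reading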
[8] = fluconazole-exposed Candida albicans growth modulators – fluorescence, retest, confirmation (AID 2467); type: functional, cell-based
[9] = NIH-3T3 fibroblast cytotoxicity, dose response, cytotoxicity control, cell-based, fluorescence, Alamar Blue, secondary assay (AID 2327); type: functional;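 note: NIH-3T3 mouse fibroblasts cultured with fluconazole at 8 µg/mL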
[10] = Trypanosoma cruzi growth suppression in host cells – NIH3T3 host cells, beta-gal luminescence, confirmation (AID 2044); type: functional, cell-based;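 note: intracellular parasites grown in NIH/3T3 mouse fibroblasts as host cells; luminescent beta-galactosidase reporter signal from transgenic T. cruzi replicating inside host cells; inhibitors lower the luminescence signal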
Cytochrome P450 2D6 = Cytochrome P450 2D6 (Homo sapiens, UniProt P10635);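 note: CYP2D6 member of a cytochrome P450 panel assay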
[11] = Luminescence Cell-Based Dose Retest to Confirm Inhibitors of Cancer Stem Cells. [Related pubchem assays (depositor defined):AID2717, AID2721]; type: functional; conditions: Homo sapiens
[12] = biological target: FAD-linked sulfhydryl oxidase ALR (Homo sapiens, UniProt P55789); experiment: ALR-catalysed DTT oxidation blockers – biochemical, H2O2 detection, luminescence, cherry-pick, dose response (AID 493248)
Genome polyprotein = Genome polyprotein (dengue virus type 2, UniProt P29990); experiment: flavivirus cap methylation enzyme inhibition – biochemical, confirmation dose response, primary screen (AID 588689); type: functional
Cytochrome P450 1A2 = biological target: T2, Cytochrome P450 1A2 (Homo sapiens, UniProt P05177);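 note: PubChem cytochrome P450 panel assay, CYP1A2 panel member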
T2 sequence (P05177 whole entry): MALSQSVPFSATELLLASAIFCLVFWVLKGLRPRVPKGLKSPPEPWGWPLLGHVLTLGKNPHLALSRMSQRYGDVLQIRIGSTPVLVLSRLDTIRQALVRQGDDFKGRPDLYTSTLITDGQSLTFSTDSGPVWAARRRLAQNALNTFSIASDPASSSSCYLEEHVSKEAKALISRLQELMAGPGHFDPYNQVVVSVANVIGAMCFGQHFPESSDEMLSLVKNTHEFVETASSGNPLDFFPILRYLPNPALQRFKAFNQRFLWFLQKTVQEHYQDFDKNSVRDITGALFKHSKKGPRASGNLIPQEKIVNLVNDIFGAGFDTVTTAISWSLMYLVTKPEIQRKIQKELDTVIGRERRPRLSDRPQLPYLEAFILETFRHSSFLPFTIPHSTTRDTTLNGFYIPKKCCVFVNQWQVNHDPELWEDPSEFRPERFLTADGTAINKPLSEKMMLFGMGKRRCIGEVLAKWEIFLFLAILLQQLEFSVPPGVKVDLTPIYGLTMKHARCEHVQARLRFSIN

Cytochrome P450 2C9 = Cytochrome P450 2C9 (Homo sapiens, UniProt P11712)
Cytochrome P450 3A4 = Cytochrome P450 3A4 (Homo sapiens, UniProt P08684);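 note: CYP3A4 tested as one member of a cytochrome P450 panel screen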

Compound: Cc1ccc2nc(O)c(CN(CCCN3CCOCC3)C(=O)Nc3ccc(Cl)cc3)cc2c1
- IC50 (H9c2): > 79 µM (inactive)

Compound: CCOc1ccc(/C=C2/Sc3ccc(C(=O)N4CCN(C(=O)c5ccco5)CC4)cc3N(C)C2=O)cc1OC
- EC50 [1]: 2.63 µM (active)
- EC50 (Streptococcus): 5.98 µM (active)
- EC50 [2]: 97.7 µM (active)
- EC50 [3]: > 120 µM (not active)
- EC50 [4]: 105 µM (active)

Compound: Cc1cccc(C(=O)N2CCc3cc(-c4csc(NC(=O)CN5CCCC5)n4)ccc32)c1
- CC50 (Vero): > 25 µM (active)

Compound: CC(C)c1nnc(NC(=O)c2cccc(-n3cnnn3)c2)s1
- IC50 [5]: 50 µM (inactive)

Compound: CCc1ccc(C(=O)c2cnc3ccc(OC)cc3c2N2CCN(CC)CC2)cc1
- EC50 [6]: 5.96 µM (active)

Compound: COc1ccccc1C(=O)NNC(=S)NC(=O)c1cc(OC)c(OC)c(OC)c1
- EC50 [7]: 6.32 µM (active)
- CC50 (Vero): 13.6 µM (active)
- EC50 [1]: 1.25 µM (active)
- EC50 [8]: 2.49 µM (active)
- EC50 (Streptococcus): 2.5 µM (active)
- EC50 [9]: > 150 µM (inactive)
- EC50 [10]: 0.158 µM (active)

Compound: O=C(N/N=C\c1ccccn1)c1cccc(C(=O)N/N=C\c2ccccn2)n1
- IC50 (H9c2): > 79 µM (inactive)

Compound: CCN(CC)CCCOc1ccc(Cl)c(Cl)c1
- EC50 [6]: 2.37 µM (active)

Compound: COc1cccc(/C=N/NC(=O)CSc2cccc3cccnc23)c1
- IC50 [5]: > 80 µM (inactive)

Compound: COc1ccc(C(=O)Nc2ccc(OCC(F)(F)C(F)F)c(C(F)(F)F)c2)cc1OC
- AC50 (Cytochrome P450 2D6): 22.4 µM (inconclusive)
- AC50 [11]: 3.78 µM (active)

Compound: Cc1cc(C(=O)NNC(=O)CCN2CCN(c3ccccc3)CC2)c2ccccc2n1
- AC50 [12]: 5.94 µM (active)

Compound: COc1cccc(C(=O)N(C)CC2CCN(CCc3cccc(C(F)(F)F)c3)CC2)c1
- EC50 [6]: 0.596 µM (active)

Compound: CCOc1ccc(N2C(=O)NC(=O)/C(=C\c3ccccc3[N+](=O)[O-])C2=O)cc1
- IC50 (Genome polyprotein): 30.5 µM (active)

Compound: O=c1oc2cc(Br)ccc2n1CSC1=NCCS1
- AC50 [12]: 0.033 µM (active)

Compound: Sc1nnc(/C=C/c2ccccc2)o1
- AC50 [12]: 29.9 µM (active)

Compound: COc1ccc(-n2cc(CNCCCn3ccnc3)c(-c3cccc(F)c3)n2)cc1
- CC50 (Vero): > 25 µM (active)

Compound: COc1ccc(-c2csc(NC(=O)c3cccc(N4C(=O)CCC4=O)c3)n2)cc1OC
- IC50 (H9c2): > 79 µM (inactive)

Compound: CCOC(=O)C1=C(C)N=C(C)C(=C(O)OCC)C1C(=O)OCC(=O)NC(C)C (stereo not given)
- IC50 (H9c2): > 79 µM (inactive)

Compound: Cc1ncc(CO)c2cc(C(=O)Nc3ccccc3Cl)/c(=N/c3cccc(C(N)=O)c3)oc12
- IC50 (H9c2): 12.4 µM (active)

Compound: O=C(NCC(=O)N1CCN(c2ccccc2)CC1)c1cccs1
- AC50 [12]: 21.4 µM (active)

Compound: COc1cc(/C=N/N2CCCCC2)cc([N+](=O)[O-])c1O
- AC50 [12]: 2.71 µM (active)

Compound: CC(=O)n1cc([C@H]2C=C(C(=O)NCc3ccccc3)O[C@@H](OCc3ccc(CO)cc3)C2)c2ccccc21
- EC50 [6]: 8.41 µM (active)

Compound: Cc1c(/C=C/C(=O)c2ccc(Cl)s2)cnn1C
- IC50 [5]: > 80 µM (inactive)

Compound: c1coc(-c2nnc3sc(-c4cccs4)nn23)c1
- IC50 (H9c2): 15.6 µM (active)

Compound: CC(C)(C)NS(=O)(=O)c1ccc(NC(=O)c2cc(-c3ccccc3)nc3ccccc23)cc1
- AC50 (Cytochrome P450 2D6): 3.98 µM (inconclusive)
- EC50 [7]: > 60 µM (not active)
- AC50 (Cytochrome P450 1A2): 3.16 µM (inconclusive)
- EC50 [10]: 2.03 µM (active)

Compound: CC(NC(=O)CCSc1nc(-c2ccco2)cc(C(F)(F)F)n1)c1ccccc1 (stereo not given)
- AC50 (Cytochrome P450 2D6): 15.8 µM (inconclusive)
- AC50 (Cytochrome P450 2C9): 15.8 µM (inconclusive)

Compound: Cc1cccc(C)c1OCCn1nc(C(=O)O)c2ccccc2c1=O
- IC50 (H9c2): > 79 µM (inactive)

Compound: CC1CC(C)CN(CCCNC(=O)c2ccc3c(c2)N(Cc2ccccc2)C(=O)c2ccccc2[S+]3[O-])C1 (stereo not given)
- EC50 [6]: 0.841 µM (active)

Compound: O=[N+]([O-])c1ccc(N/N=C/c2cn(Cc3ccc(F)cc3)c3ccccc23)nc1
- EC50 [2]: 12 µM (active)
- EC50 [3]: 15.2 µM (active)
- EC50 [4]: 25.8 µM (active)

Compound: CCN(CC(=O)Nc1cc(Cl)ccc1C)C(=O)C1CCN(c2ncnc3sc(C)c(C)c23)CC1
- IC50 (H9c2): 12.7 µM (active)

Compound: CN1CCc2nc3ccccc3c(C(=O)OCC(=O)N(CCC#N)c3ccccc3)c2C1
- IC50 (H9c2): > 79 µM (inactive)

Compound: CCOC(=O)c1ccc(/[N+]([O-])=C/c2ccccc2)cc1
- IC50 [5]: > 80 µM (inactive)

Compound: CC(C)c1ccc(NC2CCCN(C(=O)c3cnc4ccccn4c3=O)C2)cc1 (stereo not given)
- AC50 [12]: 8.31 µM (active)

Compound: C=CCN1CCc2cccc3c2[C@@H]1Cc1ccc(O)c(O)c1-3
- AC50 (Cytochrome P450 2D6): 31.6 µM (inconclusive)
- AC50 (Cytochrome P450 3A4): 31.6 µM (inconclusive)
- AC50 (Cytochrome P450 2C9): 31.6 µM (inconclusive)

Compound: CCn1c(S)nnc1-c1ccccc1O
- AC50 [12]: 9.17 µM (active)

Compound: Oc1ccc(-c2onc3ccc(Cl)cc23)cc1
- AC50 [12]: 6.97 µM (active)
